Structures can show the parent of a compound that is named as a salt.

This assay has as its target T1, human TPH1 (Homo sapiens, UniProt P17752).
T1 sequence (P17752 1-444): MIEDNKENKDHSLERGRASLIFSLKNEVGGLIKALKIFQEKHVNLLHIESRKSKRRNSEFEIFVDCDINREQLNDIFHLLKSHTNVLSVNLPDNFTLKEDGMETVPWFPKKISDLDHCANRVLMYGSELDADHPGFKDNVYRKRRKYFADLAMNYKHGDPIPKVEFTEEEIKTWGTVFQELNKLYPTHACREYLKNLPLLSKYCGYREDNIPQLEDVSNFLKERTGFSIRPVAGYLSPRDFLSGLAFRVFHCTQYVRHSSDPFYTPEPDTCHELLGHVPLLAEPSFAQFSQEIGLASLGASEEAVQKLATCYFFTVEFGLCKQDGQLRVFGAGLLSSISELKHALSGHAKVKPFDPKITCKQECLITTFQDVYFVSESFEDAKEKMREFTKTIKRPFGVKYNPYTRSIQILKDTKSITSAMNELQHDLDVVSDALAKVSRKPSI
The assay is described as follows: biochemical. The procedure, abridged: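 Inhibition is derived from 5-hydroxy-L-tryptophan fluorescence (540 nm emission, 300 nm excitation) after perchloric acid stop, relative to DMSO vehicle. Recombinant full-length human enzyme (40-80 nM) reacts with 40 μM tryptophan plus 100 μM methyltetrahydropterin, pH 7.6 Tris/DTT/catalase, 15° C, 60 min.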
The compound `O=C(COc1ccc(CN2CCOCC2)cc1Cl)N1CCc2nc3cc(C(F)(F)F)ccn3c2C1c1ccnc(Cl)c1` (stereo not shown) [Example 3.56.2, 2-(2-chloro-4-(morpholinomethyl)phenoxy)-1-(1-(2-chloropyridin-4-yl)-7-(trifluoromethyl)-3,4-dihydroimidazo[1,2-a:5,4-c′]dipyridin-2(1H)-yl)ethan-1-one] displayed an IC50 of 295 nM.
With `Cc1cc(C2c3c(nc4cc(C(F)(F)F)ccn34)CCN2C(=O)COc2ccc3ccccc3c2)ccn1` (stereo not shown) [Example 3.57.1, 1-(1-(2-methylpyridin-4-yl)-7-(trifluoromethyl)-3,4-dihydroimidazo[1,2-a:5,4-c′]dipyridin-2(1H)-yl)-2-(naphthalen-2-yloxy)ethan-1-one] the figure was 155 nM.
Consider `Cc1cc(C2c3c(nc4cc(C(F)(F)F)ccn34)CCN2C(=O)COc2ccc(CN3CCOCC3)cc2Cl)ccn1` (stereo not shown) [Example 3.57.2, 2-(2-chloro-4-(morpholinomethyl)phenoxy)-1-(1-(2-methylpyridin-4-yl)-7-(trifluoromethyl)-3,4-dihydroimidazo[1,2-a:5,4-c′]dipyridin-2(1H)-yl)ethan-1-one], for which half-maximal inhibition (IC50) was put at 35 nM.
Take `O=C(COc1ccc(CN2CCOCC2)cc1Cl)N1CCc2nc3cc(C(F)(F)F)ccn3c2C1c1ccc(Cl)cn1` (stereo not shown) [Example 3.58.1, 2-(2-chloro-4-(morpholinomethyl)phenoxy)-1-(1-(5-chloropyridin-2-yl)-7-(trifluoromethyl)-3,4-dihydroimidazo[1,2-a:5,4-c′]dipyridin-2(1H)-yl)ethan-1-one]: the IC50 came out at 30 nM.
Consider `Cc1nc(C)c(C2c3c(nc4cc(C(F)(F)F)ccn34)CCN2C(=O)COc2ccc(-c3ncco3)nc2Cl)s1` (stereo not shown) [Example 3.59.1, 2-((2-chloro-6-(oxazol-2-yl)pyridin-3-yl)oxy)-1-(1-(2,4-dimethylthiazol-5-yl)-7-(trifluoromethyl)-3,4-dihydroimidazo[1,2-a:5,4-c′]dipyridin-2(1H)-yl)ethan-1-one], for which the midpoint of inhibition, the IC50, lay at 22 nM.
Compound `Cc1nc(C)c(C2c3c(nc4cc(C(F)(F)F)ccn34)CCN2C(=O)COc2ccc(C(=O)N(C)C3CC3)nc2Cl)s1` (stereo not shown) [Example 3.59.2, 6-chloro-N-cyclopropyl-5-(2-(1-(2,4-dimethylthiazol-5-yl)-7-(trifluoromethyl)-3,4-dihydroimidazo[1,2-a:5,4-c′]dipyridin-2(1H)-yl)-2-oxoethoxy)-N-methylpicolinamide] returned an IC50 of 42 nM.
The compound `COc1ccc(C2c3c(nc4cc(C)ccn34)CCN2C(=O)COc2ccc(Cl)cc2Cl)cc1OC` (stereo not shown) [Example 4.1.1, 2-(2,4-dichlorophenoxy)-1-(1-(3,4-dimethoxyphenyl)-7-methyl-3,4-dihydroimidazo[1,2-a:5,4-c′]dipyridin-2(1H)-yl)ethan-1-one] registered a concentration for half-maximal inhibition (IC50) of 32 nM.
On to `COc1ccc(C2c3c(nc4cc(C)ccn34)CCN2C(=O)COc2ccc3ccccc3c2)cc1OC` (stereo not shown) [Example 4.1.2, 1-(1-(3,4-dimethoxyphenyl)-7-methyl-3,4-dihydroimidazo[1,2-a:5,4-c′]dipyridin-2(1H)-yl)-2-(naphthalen-2-yloxy)ethan-1-one], for which the IC50 worked out at 10 nM.
Regarding `COc1ccc(C2c3c(nc4cc(C(C)(C)C)ccn34)CCN2C(=O)COc2ccc(Cl)cc2Cl)cc1OC` (stereo not shown) [Example 5.1.1, 1-(7-(tert-butyl)-1-(3,4-dimethoxyphenyl)-3,4-dihydroimidazo[1,2-a:5,4-c′]dipyridin-2(1H)-yl)-2-(2,4-dichlorophenoxy)ethan-1-one], the IC50 was found to be 10 nM.
In turn, `CCc1cc2nc3c(n2cc1C)C(c1ccc(OC)c(OC)c1)N(C(=O)COc1ccc(Cl)cc1Cl)CC3` (stereo not shown) [Example 6.1.1, 2-(2,4-dichlorophenoxy)-1-(1-(3,4-dimethoxyphenyl)-7-ethyl-8-methyl-3,4-dihydroimidazo[1,2-a:5,4-c′]dipyridin-2(1H)-yl)ethan-1-one] showed an IC50 of 16 nM. Compared with the last compound, the IC50 is about 1.6-fold higher.
As for `CCc1cc2nc3c(n2cc1C)C(c1ccc(OC)c(OC)c1)N(C(=O)COc1ccc2ccccc2c1)CC3` (stereo not shown) [Example 6.1.2, 1-(1-(3,4-dimethoxyphenyl)-7-ethyl-8-methyl-3,4-dihydroimidazo[1,2-a:5,4-c′]dipyridin-2(1H)-yl)-2-(naphthalen-2-yloxy)ethan-1-one], the IC50 was found to be 9 nM.
Turning to `CCc1cc2nc3c(n2cc1C)C(c1ccc(OC)c(OC)c1)N(C(=O)COc1ccc2ccccc2c1CC)CC3` (stereo not shown) [Example 6.1.3, 1-(1-(3,4-dimethoxyphenyl)-7-ethyl-8-methyl-3,4-dihydroimidazo[1,2-a:5,4-c′]dipyridin-2(1H)-yl)-2-((1-ethylnaphthalen-2-yl)oxy)ethan-1-one], the IC50 came to 9 nM. In other words, the single-digit nanomolar range.
Compound `CCc1cc2nc3c(n2cc1C)C(c1ccc(OC)c(OC)c1)N(C(=O)COc1ccc2ccccc2c1C)CC3` (stereo not shown) [Example 6.1.4, 1-(1-(3,4-dimethoxyphenyl)-7-ethyl-8-methyl-3,4-dihydroimidazo[1,2-a:5,4-c′]dipyridin-2(1H)-yl)-2-((1-methylnaphthalen-2-yl)oxy)ethan-1-one hydrochloride] gave an IC50 of 8 nM.
`COc1ccc(C2c3c(nc4ccc(C)cn34)CCN2C(=O)COc2ccc(Cl)cc2Cl)cc1OC` (stereo not shown) [Example 7.1.1, 2-(2,4-dichlorophenoxy)-1-(1-(3,4-dimethoxyphenyl)-8-methyl-3,4-dihydroimidazo[1,2-a:5,4-c′]dipyridin-2(1H)-yl)ethan-1-one] yielded an IC50 of 89 nM.
With `COc1ccc(C2c3c(nc4ccc(C)cn34)CCN2C(=O)COc2ccc3ccccc3c2)cc1OC` (stereo not shown) [Example 7.1.2, 1-(1-(3,4-dimethoxyphenyl)-8-methyl-3,4-dihydroimidazo[1,2-a:5,4-c′]dipyridin-2(1H)-yl)-2-(naphthalen-2-yloxy)ethan-1-one], the midpoint of inhibition, the IC50, lay at 38 nM.
In turn, `COc1ccc(C2c3c(nc4ccc(-c5ccccc5)cn34)CCN2C(=O)COc2ccc3ccccc3c2)cc1OC` (stereo not shown) [Example 8.1.1, 1-(1-(3,4-dimethoxyphenyl)-8-phenyl-3,4-dihydroimidazo[1,2-a:5,4-c′]dipyridin-2(1H)-yl)-2-(naphthalen-2-yloxy)ethan-1-one] gave an IC50 of 38 nM.
With `COc1ccc(C2c3c(nc4ccc(Cl)cn34)CCN2C(=O)COc2ccc3ccccc3c2)cc1OC` (stereo not shown) [Example 9.1.1, 1-(8-chloro-1-(3,4-dimethoxyphenyl)-3,4-dihydroimidazo[1,2-a:5,4-c′]dipyridin-2(1H)-yl)-2-(naphthalen-2-yloxy)ethan-1-one] the figure was 145 nM; with `COc1ccc(C2c3c(nc4ccc(Br)cn34)CCN2C(=O)COc2ccc3ccccc3c2)cc1OC` (stereo not shown) [Example 10.1.1, 1-(8-bromo-1-(3,4-dimethoxyphenyl)-3,4-dihydroimidazo[1,2-a:5,4-c′]dipyridin-2(1H)-yl)-2-(naphthalen-2-yloxy)ethan-1-one], 124 nM.
With `COc1ccc(C2c3c(nc4ccc(F)cn34)CCN2C(=O)COc2ccc3ccccc3c2)cc1OC` (stereo not shown) [Example 11.1.1, 1-(1-(3,4-dimethoxyphenyl)-8-fluoro-3,4-dihydroimidazo[1,2-a:5,4-c′]dipyridin-2(1H)-yl)-2-(naphthalen-2-yloxy)ethan-1-one] the figure was 122 nM; with `CS(=O)(=O)Nc1ccc(OCC(=O)N2CCc3nc4ccc(F)cn4c3C2c2ccc(Cl)cc2F)c(Cl)n1` (stereo not shown) [Example 11.2.1, N-(6-chloro-5-(2-(1-(4-chloro-2-fluorophenyl)-8-fluoro-3,4-dihydroimidazo[1,2-a:5,4-c′]dipyridin-2(1H)-yl)-2-oxoethoxy)pyridin-2-yl)methanesulfonamide], 72 nM; with `CCc1nc(NS(C)(=O)=O)ccc1OCC(=O)N1CCc2nc3ccc(F)cn3c2C1c1ccc(Cl)cc1F` (stereo not shown) [Example 11.2.2, N-(5-(2-(1-(4-chloro-2-fluorophenyl)-8-fluoro-3,4-dihydroimidazo[1,2-a:5,4-c′]dipyridin-2(1H)-yl)-2-oxoethoxy)-6-ethylpyridin-2-yl)methanesulfonamide], 34 nM.
Consider `CCc1nc(NS(C)(=O)=O)ccc1OCC(=O)N1CCc2nc3ccc(F)cn3c2C1c1sc(C)nc1C` (stereo not shown) [Example 11.3.1, N-(5-(2-(1-(2,4-dimethylthiazol-5-yl)-8-fluoro-3,4-dihydroimidazo[1,2-a:5,4-c′]dipyridin-2(1H)-yl)-2-oxoethoxy)-6-ethylpyridin-2-yl)methanesulfonamide], for which the IC50 was found to be 48 nM. This IC50 and that of the compound before are within 1.5-fold of each other.
Consider `COc1ccc(C2c3c(nc4ccc(C(F)(F)F)cn34)CCN2C(=O)COc2ccc3ccccc3c2)cc1OC` (stereo not shown) [Example 12.1.1, 1-(1-(3,4-dimethoxyphenyl)-8-(trifluoromethyl)-3,4-dihydroimidazo[1,2-a:5,4-c′]dipyridin-2(1H)-yl)-2-(naphthalen-2-yloxy)ethan-1-one], for which the IC50 came to 183 nM. This IC50 is about 3.8-fold higher than that of the compound before.
`COc1ccc(C2c3c(nc4cc(Cl)c(C)cn34)CCN2C(=O)COc2ccc3ccccc3c2)cc1OC` (stereo not shown) [Example 13.1.1, 1-(7-chloro-1-(3,4-dimethoxyphenyl)-8-methyl-3,4-dihydroimidazo[1,2-a:5,4-c′]dipyridin-2(1H)-yl)-2-(naphthalen-2-yloxy)ethan-1-one] returned an IC50 of 40 nM.
`CS(=O)(=O)Nc1ccc(OCC(=O)N2CCc3nc4cc(F)ccn4c3C2c2ccc(Cl)cc2F)c(Cl)n1` (stereo not shown) [Example 14.1.1, N-(6-chloro-5-(2-(1-(4-chloro-2-fluorophenyl)-7-fluoro-3,4-dihydroimidazo[1,2-a:5,4-c′]dipyridin-2(1H)-yl)-2-oxoethoxy)pyridin-2-yl)methanesulfonamide] came in with an IC50 of 74 nM.

The values above are taken from patent US20180155344A1, “TRICYCLIC PIPERIDINE COMPOUNDS” (ACTELION PHARMACEUTICALS LTD, priority 2015, published 2018).
